The values below are quoted from earlier work in patent US8568779B2, “Method for producing coenzyme Q10 particle” (Kaneka Corporation, priority 2007, dated 2013).

For this data set the following is noted: composition containing reduced coenzyme Q10 versus oxidized coenzyme Q10 alone.

`COc1c(O)c(C)c(C/C=C(\C)CC/C=C(\C)CC/C=C(\C)CC/C=C(\C)CC/C=C(\C)CC/C=C(\C)CC/C=C(\C)CC/C=C(\C)CC/C=C(\C)CCC=C(C)C)c(O)c1OC` [reduced coenzyme Q10]: the oral absorbability result was “superior to conventional oxidized coenzyme Q10 alone”.
